PMC11258486, “Phase 1 dose escalation study of the MDM2 inhibitor milademetan as monotherapy and in combination with azacitidine in patients with myeloid malignancies” (Cancer Medicine, 2024)
Where “and” joins values, the source holds several entries; their conditions need not be identical. Equal entries are not always repeated. Structures can show the parent of a compound that is named as a salt.

System: patients with relapsed or refractory acute myeloid leukemia or high‐risk myelodysplastic syndromes
Procedure: This was a phase 1, open‐label, non‐randomized dose escalation study of milademetan as monotherapy (Part 1) or in combination with AZA (Part 1A; ClinicalTrials.gov identifier: NCT02319369).
Dose escalation of milademetan to determine the maximum tolerated dose (MTD) was guided by a Bayesian logistic regression model (BLRM) following escalation with overdose control principle with a starting dose of 60 mg based on safety and tolerability data from the first‐in‐human study of milademetan in solid tumors or lymphoma.[20]
In Part 1, 9 escalating dose cohorts (Figure S1) were investigated.
In Part 1A, milademetan was given in combination with AZA (75 mg/m^2 dose administered subcutaneously or intravenously on Days 1–7) with 2 dosing schedules of milademetan: in Cohorts 10 and 12, milademetan was administered QD for 10 days (Days 5–14; 160 and 200 mg, respectively); in Cohorts 11 and 13 milademetan was given QD for 7 days (Days 8–14; 160 and 200 mg, respectively).
Safety was the primary endpoint of the study and included treatment‐emergent adverse events (TEAE), serious adverse events (SAE), dose‐limiting toxicities (DLT), physical examination findings, and clinical laboratory values. TEAE were categorized according to the Medical Dictionary for Regulatory Activities (MeDRA) v17.0 and graded according to the National Cancer Institute‐Common Terminology for Adverse Events (NCI‐CTCAE) v5.0. Participants were followed up until 30 days after completion of study treatment. A DLT was defined as any TEAE of grade ≥3 not attributable to disease or disease‐related processes occurring during Cycle 1 in each dose‐level cohort.
The final MTD for each dosing regimen (QD 21/28 dosing and others) was decided based on considerations of the respective MTD estimated by the BLRM and on an overall assessment of safety data from subsequent cycles and pharmacokinetics (PK)/pharmacodynamics (PD) information collected at all different doses tested.
Cohorts of ≥3 DLT evaluable participants were enrolled per dose level, and the dose escalation decisions were guided by BLRM, governed by escalation with overdose control principle.

[1] = not assessed as related to milademetan

## CC1(C)CCC2(CC1)N[C@@H](C(=O)N[C@@H]1CC[C@@H](C(N)=O)OC1)[C@H](c1ccnc(Cl)c1F)[C@]21C(=O)Nc2cc(Cl)ccc21 [Milademetan monotherapy, milademetan tosylate hydrate]
human, in vivo
  Abdominal pain, TEAE Grade ≥3: 1 (2) n (%)
  Cough, TEAE Grade ≥3: 0 n (%)
  Cough, TEAE all grades: 3 (5) n (%)
  Decreased appetite, TEAE Grade ≥3: 1 (2) n (%)
  Decreased appetite, TEAE all grades: 13 (23) n (%)
  Dehydration, TEAE Grade ≥3: 1 (2) n (%)
  Dehydration, TEAE all grades: 6 (11) n (%)
  Depression, TEAE Grade ≥3: 0 n (%)
  Depression, TEAE all grades: 2 (4) n (%)
  Device‐related infection, TEAE Grade ≥3: 0 n (%)
  Device‐related infection, TEAE all grades: 0 n (%)
  Diarrhea, TEAE Grade ≥3: 3 (5) n (%)
  Diarrhea, TEAE all grades: 32 (56) n (%)
  Diarrhea, most common (>20%) TEAE: 25 [44%] n [%]
  Dizziness, TEAE Grade ≥3: 1 (2) n (%)
  Dizziness, TEAE all grades: 6 (11) n (%)
  Dyspnea, TEAE Grade ≥3: 0 n (%)
  Dyspnea, TEAE all grades: 8 (14) n (%)
  Epistaxis, TEAE Grade ≥3: 0 n (%)
  Epistaxis, TEAE all grades: 1 (2) n (%)
  Escherichia infection, TEAE Grade ≥3: 0 n (%)
  Escherichia infection, TEAE all grades: 0 n (%)
  Fatigue, TEAE Grade ≥3: 4 (7) n (%)
  Hyperuricemia, TEAE Grade ≥3: 2 (4) n (%)
  Hyperuricemia, TEAE all grades: 6 (11) n (%)
  Hypokalemia, TEAE Grade ≥3: 3 (5) n (%)
  Hypokalemia, TEAE all grades: 12 (21) n (%)
  Hypomagnesemia, TEAE Grade ≥3: 0 n (%)
  Hypomagnesemia, TEAE all grades: 9 (16) n (%)
  Hyponatremia, TEAE Grade ≥3: 2 (4) n (%)
  Hyponatremia, TEAE all grades: 2 (4) n (%)
  Hypophosphatemia, TEAE Grade ≥3: 0 n (%)
  Hypophosphatemia, TEAE all grades: 0 n (%)
  Hypotension, TEAE Grade ≥3: 2 (4) n (%)
  Hypotension, TEAE all grades: 9 (16) n (%)
  Increased ALT, TEAE Grade ≥3: 0 n (%)
  Increased ALT, TEAE all grades: 1 (2) n (%)
  Insomnia, TEAE Grade ≥3: 0 n (%)
  Insomnia, TEAE all grades: 4 (7) n (%)
  Lung infection, TEAE Grade ≥3: 11 (19) n (%)
  Lung infection, TEAE all grades: 11 (19) n (%)
  Maculopapular rash, TEAE Grade ≥3: 0 n (%)
  Maculopapular rash, TEAE all grades: 2 (4) n (%)
  Muscular weakness, TEAE all grades: 2 (4) n (%)
  Myalgia, TEAE Grade ≥3: 0 n (%)
  Myalgia, TEAE all grades: 1 (2) n (%)
  Nausea, TEAE Grade ≥3: 4 (7) n (%)
  Nausea, TEAE all grades: 39 (68) n (%)
  Nausea, most common (>20%) TEAE: 32 [56%] n [%]
  Neutropenia, TEAE Grade ≥3: 10 (18) n (%)
  Neutropenia, TEAE all grades: 10 (18) n (%)
  Oropharyngeal pain, TEAE Grade ≥3: 0 n (%)
  Oropharyngeal pain, TEAE all grades: 3 (5) n (%)
  Pancytopenia, TEAE Grade ≥3: 0 n (%)
  Pancytopenia, TEAE all grades: 0 n (%)
  Participants with DLT of cellulitis: 1 participant
  Participants with DLT of diarrhea: 1 participant
  Participants with DLT of fatigue: 1 participant
  Participants with DLT of hypokalemia: 1 participant
  Participants with DLT of nausea: 3 participants
  Participants with DLT of renal failure: 1 participant
  Participants with DLT of vomiting: 1 participant
  Peripheral edema, TEAE Grade ≥3: 0 n (%)
  Peripheral edema, TEAE all grades: 14 (25) n (%)
  Pneumonia, TEAE Grade ≥3: 6 (11) n (%)
  Pneumonia, TEAE all grades: 9 (16) n (%)
  Pyrexia, TEAE Grade ≥3: 1 (2) n (%)
  Pyrexia, TEAE all grades: 5 (9) n (%)
  Rhinorrhea, TEAE Grade ≥3: 0 n (%)
  Rhinorrhea, TEAE all grades: 1 (2) n (%)
  SAE: 39 (68.4) n (%)
  SAE: bacteremia: 3 [5%] n [%]
  SAE: cellulitis: 3 [5%] n [%]
  SAE: febrile neutropenia: 5 [9%] n [%]
  SAE: lung infection: 9 [16%] n [%]
  SAE: pneumonia: 7 [12%] n [%]
  SAE: pyrexia: 3 [5%] n [%]
  SAE: sepsis: 7 [12%] n [%]
  Sepsis, TEAE Grade ≥3: 8 (14) n (%)
  Sepsis, TEAE all grades: 8 (14) n (%)
  Tolerability relative to MTD: exceeded MTD
  Vomiting, most common (>20%) TEAE: 15 [26%] n [%]
In vivo
  Participants who experienced DLT: Eight
Monotherapy arm
  Dose interruptions due to TEAE: 12 (21%) n (%)
  Dose reductions due to TEAE: 3 (5%) n (%)
monotherapy, QD 21/28 and QD 14/28 dosing schedules
  Maximum tolerated dose (MTD) of milademetan: 160 mg
[1]
  Event associated with a fatal outcome: intracranial hemorrhage: 1 patient
  Event associated with a fatal outcome: lung infection: 2 patients
  Event associated with a fatal outcome: multi-organ failure: 1 patient
  Event associated with a fatal outcome: pneumonia: 1 patient
  Event associated with a fatal outcome: respiratory failure: 1 patient
  Event associated with a fatal outcome: sepsis: 4 patients
Per investigator assessment, safety analysis set
  Milademetan-related TEAE: 47 (82.5) n (%)
Safety analysis set
  Abdominal pain, TEAE all grades: 7 (12) n (%)
  Anemia, TEAE Grade ≥3: 9 (16) n (%)
  Anemia, TEAE all grades: 13 (23) n (%)
  Any TEAE, Grade ≥3: 48 (84%) n (%) and 48 (84) n (%) and 48 (84.2) n (%)
  Any TEAE, all grades: 57 n (%) and 57 (100) n (%)
  Arthralgia, TEAE Grade ≥3: 0 n (%)
  Arthralgia, TEAE all grades: 3 (5) n (%)
  Asthenia, TEAE Grade ≥3: 1 (2) n (%)
  Asthenia, TEAE all grades: 7 (12) n (%)
  Constipation, TEAE Grade ≥3: 0 n (%)
  Constipation, TEAE all grades: 3 (5) n (%)
  Contusion, TEAE Grade ≥3: 0 n (%)
  Contusion, TEAE all grades: 2 (4) n (%)
  Fatigue, TEAE all grades: 20 (35) n (%)
  Febrile neutropenia, TEAE Grade ≥3: 5 (9) n (%)
  Febrile neutropenia, TEAE all grades: 6 (11) n (%)
  Fluid overload, TEAE Grade ≥3: 0 n (%)
  Fluid overload, TEAE all grades: 2 (4) n (%)
  Fungal pneumonia, TEAE Grade ≥3: 2 (4) n (%)
  Fungal pneumonia, TEAE all grades: 2 (4) n (%)
  Headache, TEAE Grade ≥3: 0 n (%)
  Headache, TEAE all grades: 2 (4) n (%)
  Hemorrhoids, TEAE Grade ≥3: 1 (2) n (%)
  Hemorrhoids, TEAE all grades: 3 (5) n (%)
  Malaise, TEAE Grade ≥3: 0 (0) n (%)
  Malaise, TEAE all grades: 6 (11) n (%)
  Milademetan-related Grade ≥3 TEAE: 19 (33%) n (%) and 19 (33.3) n (%)
  Milademetan-related SAE: 7 (12%) n (%) and 7 (12.3) n (%)
  Milademetan-related TEAE associated with milademetan discontinuation: 5 (8.8) n (%)
  Muscular weakness, TEAE Grade ≥3: 0 n (%)
  TEAE associated with death: 9 (16%) n (%) and 9 (15.8)^a n (%)
  TEAE associated with milademetan discontinuation: 13 (23%) n (%) and 13 (22.8) n (%)
  Thrombocytopenia, TEAE Grade ≥3: 15 (26) n (%)
  Thrombocytopenia, TEAE all grades: 15 (26) n (%)
  Vomiting, TEAE Grade ≥3: 2 (4) n (%)
  Vomiting, TEAE all grades: 24 (42) n (%)
